# Laboratory results reported in publication PMC11003488 (Journal of Enzyme Inhibition and Medicinal Chemistry, 2023).
# What was measured:
# HL-60(TB) = assay: cells; assay type: cell-based; details: Homo sapiens, HL-60, read-out: percent growth inhibition
# K-562 = assay: NCI-60 SRB growth inhibition, one-dose and five-dose; assay type: cell-based; details: Homo sapiens, K562, read-out: percent growth inhibition
# MOLT-4 = assay: as above; assay type: cell-based; details: Homo sapiens, MOLT-4, read-out: percent growth inhibition
# RPMI-8226 = assay: as above; assay type: cell-based; details: Homo sapiens, RPMI-8226, read-out: percent growth inhibition
# A549/ATCC = assay: as above; assay type: cell-based; details: Homo sapiens, A549, read-out: percent growth inhibition
# EKVX = assay: as above; assay type: cell-based; details: Homo sapiens, read-out: percent growth inhibition
# HOP-92 = assay: as above; assay type: cell-based; details: Homo sapiens, HOP-92, read-out: percent growth inhibition
# NCI-H23 = assay: as above; assay type: cell-based; details: Homo sapiens, NCI-H23, read-out: percent growth inhibition
# NCI-H322M = assay: as above; assay type: cell-based; details: Homo sapiens, read-out: percent growth inhibition
# NCI-H460 = assay: as above; assay type: cell-based; details: Homo sapiens, NCI-H460, read-out: percent growth inhibition
# NCI-H522 = assay: as above; assay type: cell-based; details: Homo sapiens, NCI-H522, read-out: percent growth inhibition
# HCC-2998 = assay: as above; assay type: cell-based; details: Homo sapiens, HCC 2998, read-out: percent growth inhibition
# HCT-116 = assay: as above; assay type: cell-based; details: Homo sapiens, HCT-116, read-out: percent growth inhibition
# HCT-15 = assay: as above; assay type: cell-based; details: Homo sapiens, HCT-15, read-out: percent growth inhibition
# SW-620 = assay: as above; assay type: cell-based; details: Homo sapiens, SW-620, read-out: percent growth inhibition
# SF-268 = assay: as above; assay type: cell-based; details: Homo sapiens, SF-268, read-out: percent growth inhibition
# SF-539 = assay: as above; assay type: cell-based; details: Homo sapiens, SF-539, read-out: percent growth inhibition
# SNB-19 = assay: as above; assay type: cell-based; details: Homo sapiens, SNB-19, read-out: percent growth inhibition
# SNB-75 = assay: as above; assay type: cell-based; details: Homo sapiens, SNB-75, read-out: percent growth inhibition
# U251 = assay: as above; assay type: cell-based; details: Homo sapiens, U-251, read-out: percent growth inhibition
# M14 = assay: as above; assay type: cell-based; details: Homo sapiens, M14, read-out: percent growth inhibition
# SK-MEL-2 = assay: as above; assay type: cell-based; details: Homo sapiens, SK-MEL-2, read-out: percent growth inhibition
# SK-MEL-28 = assay: as above; assay type: cell-based; details: Homo sapiens, SK-MEL-28, read-out: percent growth inhibition
# UACC-62 = assay: as above; assay type: cell-based; details: Homo sapiens, UACC-62, read-out: percent growth inhibition
# IGROV1 = assay: as above; assay type: cell-based; details: Homo sapiens, IGROV-1, read-out: percent growth inhibition
# OVCAR-3 = assay: as above; assay type: cell-based; details: Homo sapiens, OVCAR-3, read-out: percent growth inhibition
# OVCAR-5 = assay: as above; assay type: cell-based; details: Homo sapiens, OVCAR-5, read-out: percent growth inhibition
# OVCAR-8 = assay: as above; assay type: cell-based; details: Homo sapiens, OVCAR-8, read-out: percent growth inhibition
# NCI/ADR-RES = assay: as above; assay type: cell-based; details: Homo sapiens, read-out: percent growth inhibition
# 786-0 = assay: as above; assay type: cell-based; details: Homo sapiens, 786-0, read-out: percent growth inhibition
# A498 = assay: as above; assay type: cell-based; details: Homo sapiens, A498, read-out: percent growth inhibition
# CAKI-1 = assay: as above; assay type: cell-based; details: Homo sapiens, CAKI-1, read-out: percent growth inhibition
# RXF 393 = assay: as above; assay type: cell-based; details: Homo sapiens, RXF 393, read-out: percent growth inhibition
# SN12C = assay: as above; assay type: cell-based; details: Homo sapiens, read-out: percent growth inhibition
# TK-10 = assay: as above; assay type: cell-based; details: Homo sapiens, TK-10, read-out: percent growth inhibition
# PC-3 = assay: as above; assay type: cell-based; details: Homo sapiens, PC-3, read-out: percent growth inhibition
# MCF7 = assay: as above; assay type: cell-based; details: Homo sapiens, MCF7, read-out: percent growth inhibition
# HS 578 T = assay: as above; assay type: cell-based; details: Homo sapiens, read-out: percent growth inhibition
# BT-549 = assay: as above; assay type: cell-based; details: Homo sapiens, BT-549, read-out: percent growth inhibition
# T-47D = assay: as above; assay type: cell-based; details: Homo sapiens, T47D, read-out: percent growth inhibition
# [1] = test system: NCI 60-cell line panel (full panel); assay: NCI-60 SRB growth inhibition, full panel mean / MG-MID; assay type: cell-based, human; details: mean over NCI-60 panel; single dose 10 µM
# SR = assay: NCI-60 SRB growth inhibition, one-dose and five-dose; assay type: cell-based; details: Homo sapiens, read-out: percent growth inhibition
smiles,measurement,setting,value
"CC(=O)Nc1ccc(/C=C/C(=O)c2cccc(NCc3ccc4oc(=O)ccc4c3)c2)cc1 [Compound 5k, (E)-N-(4–(3-oxo-3–(3-(((2-oxo-2H-chromen-6-yl)methyl)amino)phenyl)prop-1-en-1-yl)phenyl)acetamide]",inhibition at 10 µM,HL-60(TB),59%
same,inhibition at 10 µM,K-562,93.3%
same,inhibition at 10 µM,MOLT-4,84.2%
same,inhibition at 10 µM,RPMI-8226,80.5%
same,inhibition at 10 µM,A549/ATCC,21.5%
same,inhibition at 10 µM,EKVX,64.5%
same,inhibition at 10 µM,HOP-92,3.27%
same,inhibition at 10 µM,NCI-H23,38.6%
same,inhibition at 10 µM,NCI-H322M,15.3%
same,inhibition at 10 µM,NCI-H460,22.7%
same,inhibition at 10 µM,NCI-H522,36.3%
same,inhibition at 10 µM,HCC-2998,10%
same,inhibition at 10 µM,HCT-116,78.8%
same,inhibition at 10 µM,HCT-15,50.7%
same,inhibition at 10 µM,SW-620,52.2%
same,inhibition at 10 µM,SF-268,18.2%
same,inhibition at 10 µM,SF-539,19%
same,inhibition at 10 µM,SNB-19,38.8%
same,inhibition at 10 µM,SNB-75,25.4%
same,inhibition at 10 µM,U251,49%
same,inhibition at 10 µM,M14,30.6%
same,inhibition at 10 µM,SK-MEL-2,35.7%
same,inhibition at 10 µM,SK-MEL-28,21.2%
same,inhibition at 10 µM,UACC-62,67.5%
same,inhibition at 10 µM,IGROV1,23.3%
same,inhibition at 10 µM,OVCAR-3,41.7%
same,inhibition at 10 µM,OVCAR-5,16.8%
same,inhibition at 10 µM,OVCAR-8,34.9%
same,inhibition at 10 µM,NCI/ADR-RES,68.9%
same,inhibition at 10 µM,786-0,24.2%
same,inhibition at 10 µM,A498,20.4%
same,inhibition at 10 µM,CAKI-1,37.7%
same,inhibition at 10 µM,RXF 393,18%
same,inhibition at 10 µM,SN12C,29.5%
same,inhibition at 10 µM,TK-10,25.8%
same,inhibition at 10 µM,PC-3,27.6%
same,inhibition at 10 µM,MCF7,73.6%
same,inhibition at 10 µM,HS 578 T,22.1%
same,inhibition at 10 µM,BT-549,55.8%
same,inhibition at 10 µM,T-47D,66%
same,Full panel Mean GI %,[1],39.00%
"CC(=O)Nc1ccc(CNc2cccc(C(=O)/C=C/c3c[nH]cn3)c2)cc1 [Compound 5l, (E)-N-(4-(((3–(3-(1H-imidazol-4-yl)acryloyl)phenyl)amino)methyl)phenyl)acetamide]",inhibition at 10 µM,HL-60(TB),65.2%
same,inhibition at 10 µM,K-562,80.8%
same,inhibition at 10 µM,MOLT-4,40.3%
same,inhibition at 10 µM,RPMI-8226,38%
same,inhibition at 10 µM,A549/ATCC,7.54%
same,inhibition at 10 µM,EKVX,24.8%
same,inhibition at 10 µM,HOP-92,12.3%
same,inhibition at 10 µM,NCI-H23,11.5%
same,inhibition at 10 µM,NCI-H322M,12.8%
same,inhibition at 10 µM,NCI-H460,4.86%
same,inhibition at 10 µM,NCI-H522,64.2%
same,inhibition at 10 µM,HCC-2998,-2.31%
same,inhibition at 10 µM,HCT-116,29.4%
same,inhibition at 10 µM,HCT-15,14.3%
same,inhibition at 10 µM,SW-620,24.8%
same,inhibition at 10 µM,SF-268,19.4%
same,inhibition at 10 µM,SF-539,14.1%
same,inhibition at 10 µM,SNB-19,26.6%
same,inhibition at 10 µM,SNB-75,11.7%
same,inhibition at 10 µM,U251,48.3%
same,inhibition at 10 µM,M14,13.5%
same,inhibition at 10 µM,SK-MEL-2,12.8%
same,inhibition at 10 µM,SK-MEL-28,13.4%
same,inhibition at 10 µM,UACC-62,34%
same,inhibition at 10 µM,IGROV1,8.09%
same,inhibition at 10 µM,OVCAR-3,33.8%
same,inhibition at 10 µM,OVCAR-5,5.08%
same,inhibition at 10 µM,OVCAR-8,8.86%
same,inhibition at 10 µM,NCI/ADR-RES,-1.58%
same,inhibition at 10 µM,786-0,11.6%
same,inhibition at 10 µM,A498,11.1%
same,inhibition at 10 µM,CAKI-1,12.4%
same,inhibition at 10 µM,RXF 393,37.7%
same,inhibition at 10 µM,SN12C,19.8%
same,inhibition at 10 µM,TK-10,12.9%
same,inhibition at 10 µM,PC-3,7.64%
same,inhibition at 10 µM,MCF7,81.8%
same,inhibition at 10 µM,HS 578 T,7.6%
same,inhibition at 10 µM,BT-549,34.9%
same,inhibition at 10 µM,T-47D,56.9%
same,Full panel Mean GI %,[1],24.10%
"O=C(/C=C/c1c[nH]cn1)c1cccc(NCc2ccc(CO)cc2)c1 [Compound 5m, (E)-1–(3-((4-(hydroxymethyl)benzyl)amino)phenyl)-3-(1H-imidazol-4-yl)prop-2-en-1-one]",inhibition at 10 µM,HL-60(TB),65.9%
same,inhibition at 10 µM,K-562,80.4%
same,inhibition at 10 µM,MOLT-4,28.5%
same,inhibition at 10 µM,RPMI-8226,63.3%
same,inhibition at 10 µM,SR,92.9%
same,inhibition at 10 µM,A549/ATCC,14.1%
same,inhibition at 10 µM,EKVX,32.2%
same,inhibition at 10 µM,HOP-92,22.2%
same,inhibition at 10 µM,NCI-H23,18.6%
same,inhibition at 10 µM,NCI-H322M,13%
same,inhibition at 10 µM,NCI-H460,6.83%
same,inhibition at 10 µM,NCI-H522,89.4%
same,inhibition at 10 µM,HCC-2998,-0.68%
same,inhibition at 10 µM,HCT-116,36.5%
same,inhibition at 10 µM,HCT-15,21.5%
same,inhibition at 10 µM,SW-620,23.8%
same,inhibition at 10 µM,SF-268,8.96%
same,inhibition at 10 µM,SF-539,11%
same,inhibition at 10 µM,SNB-19,16.8%
same,inhibition at 10 µM,U251,56%
same,inhibition at 10 µM,M14,15%
same,inhibition at 10 µM,SK-MEL-28,6.66%
same,inhibition at 10 µM,UACC-62,30.5%
same,inhibition at 10 µM,IGROV1,9.93%
same,inhibition at 10 µM,OVCAR-3,5.3%
same,inhibition at 10 µM,OVCAR-5,-1.46%
same,inhibition at 10 µM,OVCAR-8,15.4%
same,inhibition at 10 µM,NCI/ADR-RES,6.75%
same,inhibition at 10 µM,786-0,11.7%
same,inhibition at 10 µM,A498,2.28%
same,inhibition at 10 µM,CAKI-1,8.35%
same,inhibition at 10 µM,RXF 393,38.3%
same,inhibition at 10 µM,SN12C,19.9%
same,inhibition at 10 µM,TK-10,6.96%
same,inhibition at 10 µM,PC-3,11.3%
same,inhibition at 10 µM,MCF7,66%
same,inhibition at 10 µM,HS 578 T,4.31%
same,inhibition at 10 µM,BT-549,34%
same,inhibition at 10 µM,T-47D,47.8%
same,Full panel Mean GI %,[1],25.19%
"O=C(/C=C/c1c[nH]cn1)c1cccc(NCc2ccc3oc(=O)ccc3c2)c1 [Compound 5n, (E)-6-(((3–(3-(1H-imidazol-4-yl)acryloyl)phenyl)amino)methyl)-2H-chromen-2-one]",inhibition at 10 µM,HL-60(TB),85.4%
same,inhibition at 10 µM,K-562,87.2%
same,inhibition at 10 µM,MOLT-4,61.1%
same,inhibition at 10 µM,RPMI-8226,86.9%
same,inhibition at 10 µM,SR,98.1%
same,inhibition at 10 µM,A549/ATCC,25.6%
same,inhibition at 10 µM,EKVX,45.6%
same,inhibition at 10 µM,HOP-92,25.8%
same,inhibition at 10 µM,NCI-H23,28.3%
same,inhibition at 10 µM,NCI-H322M,18.1%
same,inhibition at 10 µM,NCI-H460,23.4%
same,inhibition at 10 µM,NCI-H522,138%
same,inhibition at 10 µM,HCC-2998,16.8%
same,inhibition at 10 µM,HCT-116,58.1%
same,inhibition at 10 µM,HCT-15,33.9%
same,inhibition at 10 µM,SW-620,31.8%
same,inhibition at 10 µM,SF-268,10.9%
same,inhibition at 10 µM,SF-539,14.8%
same,inhibition at 10 µM,SNB-19,25.7%
same,inhibition at 10 µM,U251,68.2%
same,inhibition at 10 µM,M14,24.5%
same,inhibition at 10 µM,SK-MEL-28,13.3%
same,inhibition at 10 µM,UACC-62,45.2%
same,inhibition at 10 µM,IGROV1,16.6%
same,inhibition at 10 µM,OVCAR-3,13.8%
same,inhibition at 10 µM,OVCAR-5,10.4%
same,inhibition at 10 µM,OVCAR-8,32.5%
same,inhibition at 10 µM,NCI/ADR-RES,10.6%
same,inhibition at 10 µM,786-0,31.8%
same,inhibition at 10 µM,A498,4.82%
same,inhibition at 10 µM,CAKI-1,8.01%
same,inhibition at 10 µM,RXF 393,38.5%
same,inhibition at 10 µM,SN12C,29.8%
same,inhibition at 10 µM,TK-10,30%
same,inhibition at 10 µM,PC-3,17.1%
same,inhibition at 10 µM,MCF7,90.1%
same,inhibition at 10 µM,HS 578 T,13.6%
same,inhibition at 10 µM,BT-549,22.9%
same,inhibition at 10 µM,T-47D,54%
same,Full panel Mean GI %,[1],37.53%
